From patent publication US20220313587A1, “Oral Care Compositions” (Colgate-Palmolive Company, priority 2019, published 2022)

What was measured:
[1] = test system: gingival epithelial cells (GEC); test: Topical application of vitamin D to gingival epithelial cells, LL-37 expression; assay type: cell-based
CAP-18 (LL-37) = test: Relative gene expression by qPCR (LL-37 probe) in oral tissue model after treatment with toothpaste slurry; assay type: cell-based, human; settings: fresh toothpaste slurry 1:3 in water, 2 minutes treatment, overnight incubation, normalized with GAPDH
Method: (§1) A toothpaste slurry was prepared by diluting the toothpaste formulation of Table 1 with deionized water in a 1:3 ratio. The slurry was applied on top of tissues that modeled the human oral cavity. After 2 minutes of the treatment, the tissues were rinsed with PBS twice or three times. Medium in wells was replaced with fresh medium and incubated in a cell culture incubator for overnight. Tissues were harvested and processed for RNA isolation and c-DNA preparation. Two probes were used for qPCR; CAP-18 (LL-37) and Cyp24A1. Relative levels of expressions were assessed after normalization with GAPDH (internal control).
(§2) The data is consistent for both LL-37 and Cyp24A1.

Cyp24A1 = test: Relative gene expression by qPCR (Cyp24A1 probe) in oral tissue model after treatment with toothpaste slurry; assay type: cell-based, human; settings: fresh toothpaste slurry 1:3 in water, 2 minutes treatment, overnight incubation, normalized with GAPDH
Method: as §1, §2

Compound: C=C1/C(=C\C=C2/CCC[C@]3(C)[C@@H]([C@H](C)CCCC(C)(C)O)CC[C@@H]23)C[C@@H](O)C[C@@H]1O [1,25(OH)2D3, 1,25-dihydroxycholecalciferol]
- expression of anti-microbial peptide (LL-37) proteins [1]: induces enhanced expression

Compound: C=C1CC[C@H](O)C/C1=C/C=C1\CCC[C@]2(C)[C@@H]([C@H](C)CCCC(C)C)CC[C@@H]12 [Neat Active, cholecalciferol]
- Relative Gene Expression after Treatment, LL-37, Mean (CAP-18 (LL-37)): 2.0
- Relative Gene Expression after Treatment, Cyp24A1, Mean (Cyp24A1): 4.3
